Where two headings read alike, the source gives them in different places.
Columns and labels:
[1] = test system: bacterial cell membrane disruption / depolarization; experiment: Membrane depolarization assay; type: cell-based; details: DiSC3 release
[2] = test system: bacterial cell membrane permeability; details: PI; cited from earlier work
[3] = test system: bacterial cell membrane disruption / depolarization; details: DiSC3; cited from earlier work
[4] = test system: Ac2K-D-Ala-D-Lac; details: remodeled peptidoglycan precursor; cited from earlier work

Substance: CBP-vancomycin [compound 3]
- membrane depolarization activity (in words) [1]: also observed

Substance: oritavancin
- induced cell membrane permeability (in words) [2]: activity in both assays has been observed
- membrane depolarization activity (in words) [3]: observed

Substance: telavancin
- induced cell membrane permeability (in words) [2]: activity in both assays has been observed
- membrane depolarization activity (in words) [3]: observed

Substance: vancomycin [compound 1]
- decrease in binding affinity on replacing ᴅ-Ala-ᴅ-Ala with ᴅ-Ala-ᴅ-Lac [4]: 1,000 fold

— publication PMC6200594 (ACS infectious diseases, 2018)
